The record followed here is article PMC8840742 (Molecules, 2022).

Like-named read-outs stand apart in the source and are kept apart here.

For data set [1], the system named is SARS-CoV-2. The conditions noted are these: for SI (CC50/EC50) / anti-SARS-CoV-2 activity in words: VeroE6 cells; for anti-SARS-CoV-2 activity in words: SAR discussion; for potency loss / fold less active relative to compound 8 (SARS-CoV-2): relative to compound 8, VeroE6.
In the next data set the test system is VeroE6 cells. The data set is described as follows: Cytotoxicity in mock-infected VeroE6 cells (MTS assay). Conditions: read-out: MTS CC50; mock-infected VeroE6 cells, MTS assay. In general terms: Formazan colour is commonly taken as a measure of viable cells.
For data set [2], the system named is SARS-CoV-2. Description: microbe, parasite or virus in culture. Conditions: Severe acute respiratory syndrome coronavirus 2, 96 h, read-out: SARS-CoV-2 EC50.
A further data set can be described thus: in vitro. The conditions noted are these: African green monkey.
Data set [3] in a line: Cytotoxicity in mock-infected VeroE6 cells (MTS assay). The conditions noted are these: African green monkey.

As for “5-[2-(1-Cyclopentylpyrrolidin-3-yl)oxyphenyl]-3-(4-pyridyl)-1,2,4-thiadiazole [Compound 49]”, in the data set with SARS-CoV-2 [1], the “SI (CC50/EC50)” value came to 2.6. Further, the EC50 in the data set with SARS-CoV-2 [1] (read-out: SARS-CoV-2 EC50) is 5.4 ± 2.1 µM. Moreover, in the data set on VeroE6 cells, the CC50 was found to be 14 ± 1 µM.
For `c1ccc(CCN2CC[C@@H](Oc3ccccc3-c3nc(-c4ccncc4)no3)C2)cc1` [Compound 1a, 5-[2-[(3R)-1-(2-Phenylethyl)pyrrolidin-3-yl]oxyphenyl]-3-(4-pyridyl)-1,2,4-oxadiazole], the “SI (CC50/EC50)” value in the data set with SARS-CoV-2 [1] was 8.1. For the same compound, the EC50 in the data set on SARS-CoV-2 [2] turned out to be 3.6 ± 1.8 µM. The compound also showed a CC50 in “in vitro” of 29 ± 24 µM.
The matching figures for `c1ccc(CCN2CC[C@H](Oc3ccccc3-c3nc(-c4ccncc4)no3)C2)cc1` [Compound 1b, 5-[2-[(3S)-1-(2-Phenylethyl)pyrrolidin-3-yl]oxyphenyl]-3-(4-pyridyl)-1,2,4-oxadiazole]: 12.8, 1.4 ± 0.1 µM and 18 ± 11 µM.
The matching figures for `c1ccc(-c2nc(-c3ccncc3)no2)c(OC2CCN(C3CCCC3)C2)c1` (stereo not shown) [Compound 8, 5-[2-(1-Cyclopentylpyrrolidin-3-yl)oxyphenyl]-3-(4-pyridyl)-1,2,4-oxadiazole]: 7.6, 5.4 ± 3.5 µM and 41 ± 25 µM.
As to `c1ccc(-c2nc(-c3ccncc3)no2)c(OC2CCN(CC3CCCC3)C2)c1` (stereo not shown) [Compound 9, 5-[2-[1-(Cyclopentylmethyl)pyrrolidin-3-yl]oxyphenyl]-3-(4-pyridyl)-1,2,4-oxadiazole], in the data set on SARS-CoV-2 [1], the “SI (CC50/EC50)” value is 15. In addition, in the data set with SARS-CoV-2 [2], the concentration for a half-maximal effect (EC50) amounted to 1.6 ± 0.8 µM. In “in vitro”, this compound came in with a CC50 of 24 ± 8 µM.
`c1ccc(-c2nc(-c3ccncc3)no2)c(OCC2CCN(C3CCCC3)C2)c1` (stereo not shown) [Compound 10, 5-[2-[(1-Cyclopentylpyrrolidin-3-yl)methoxy]phenyl]-3-(4-pyridyl)-1,2,4-oxadiazole]: the “SI (CC50/EC50)” value in the data set on SARS-CoV-2 [1] was 15.9. Also, the EC50 in the data set with SARS-CoV-2 [2] was found to be 1.7 ± 0.3 µM. Also, the CC50 in “in vitro” was found to be 27 ± 6 µM.
As for `c1ccc(-c2nc(-c3ccncc3)no2)c(OCC2CCN(CC3CCCC3)C2)c1` (stereo not shown) [Compound 11, 5-[2-[[1-(Cyclopentylmethyl)pyrrolidin-3-yl]methoxy]phenyl]-3-(4-pyridyl)-1,2,4-oxadiazole], in the data set on SARS-CoV-2 [1] (relative to compound 10, VeroE6), the “fold less active than compound 10 (SARS-CoV-2)” value was found to be 20 fold. For the same compound, in the data set with SARS-CoV-2 [2], the EC50 is 40 ± 14 µM. The compound further came in with a CC50 in “in vitro” greater than 50 µM.
`c1ccc(-c2nc(-c3ccncc3)no2)c(OC2CCN(C3CCCC3)CC2)c1` [Compound 12, 5-[2-[(1-Cyclopentyl-4-piperidyl)oxy]phenyl]-3-(4-pyridyl)-1,2,4-oxadiazole]: the “SI (CC50/EC50)” value with SARS-CoV-2 [1] stood at 27.1. For the same compound, the EC50 in the data set with SARS-CoV-2 [2] amounted to 1.7 ± 0.5 µM. Further, the CC50 in the data set “in vitro” was found to be 46 ± 18 µM.
Regarding `c1ccc(-c2nc(-c3ccncc3)no2)c(OCCNC2CCCC2)c1` [Compound 13, N-[2-[2-[3-(4-Pyridyl)-1,2,4-oxadiazol-5-yl]phenoxy]ethyl]cyclopentanamine], in the data set on SARS-CoV-2 [1], the “SI (CC50/EC50)” value was 5.5. In addition, the EC50 in the data set with SARS-CoV-2 [2] was 8.4 ± 2.5 µM. In the data set “in vitro”, the CC50 was determined as 46 ± 13 µM.
The matching figures for `CN(CCOc1ccccc1-c1nc(-c2ccncc2)no1)C1CCCC1` [Compound 14, N-Methyl-N-[2-[2-[3-(4-pyridyl)-1,2,4-oxadiazol-5-yl]phenoxy]ethyl]cyclopentanamine]: 4.4, 8.5 ± 4 µM and 37 ± 11 µM.
On to `c1cncc(-c2noc(-c3ccccc3OC3CCN(C4CCCC4)C3)n2)c1` (stereo not shown) [Compound 23, 5-[2-(1-Cyclopentylpyrrolidin-3-yl)oxyphenyl]-3-(3-pyridyl)-1,2,4-oxadiazole], for which, in the data set on SARS-CoV-2 [1], the “SI (CC50/EC50)” value is reported as greater than 6 and the “anti-SARS-CoV-2 activity in words” value is listed as “equipotent to 8”. Moreover, the concentration giving a half-maximal response (EC50) in the data set with SARS-CoV-2 [2] amounted to 8.4 ± 5.7 µM. In “in vitro”, this compound registered a CC50 greater than 50 µM.
Consider `c1ccc(-c2nc(-c3cncnc3)no2)c(OC2CCN(C3CCCC3)C2)c1` (stereo not shown) [Compound 24, 5-[2-(1-Cyclopentylpyrrolidin-3-yl)oxyphenyl]-3-pyrimidin-5-yl-1,2,4-oxadiazole], for which, in the data set on SARS-CoV-2 [1], the “SI (CC50/EC50)” value is on record as greater than 3.3 and the “potency loss / fold less active relative to compound 8 (SARS-CoV-2)” value worked out at 3 fold. The concentration for a half-maximal effect (EC50) in the data set on SARS-CoV-2 [2] amounted to 15 ± 2 µM. For the same compound, the CC50 in the data set “in vitro” is greater than 50 µM.
As for `c1ccc(-c2nc(-c3ccnnc3)no2)c(OC2CCN(C3CCCC3)C2)c1` (stereo not shown) [Compound 25, 5-[2-(1-Cyclopentylpyrrolidin-3-yl)oxyphenyl]-3-pyridazin-4-yl-1,2,4-oxadiazole], the “potency loss / fold less active relative to compound 8 (SARS-CoV-2)” value with SARS-CoV-2 [1] is “more than 10 fold”. For the same compound, in the data set on SARS-CoV-2 [2], the 50% effective concentration (EC50) is greater than 50 µM. In addition, the CC50 in “in vitro” was greater than 50 µM.
Regarding `c1ccc(-c2noc(-c3ccccc3OC3CCN(C4CCCC4)C3)n2)cc1` (stereo not shown) [Compound 26, 5-[2-(1-Cyclopentylpyrrolidin-3-yl)oxyphenyl]-3-phenyl-1,2,4-oxadiazole], in the data set with SARS-CoV-2 [1], the “SI (CC50/EC50)” value is less than 1 and the “anti-SARS-CoV-2 activity in words” value was “showed only cytotoxicity”. Also, in the data set with SARS-CoV-2 [2], the 50% effective concentration (EC50) is greater than 50 µM. In addition, in “in vitro”, the CC50 is 9 ± 2.5 µM.
For `COc1ccc(-c2noc(-c3ccccc3OC3CCN(C4CCCC4)C3)n2)cn1` (stereo not shown) [Compound 27, 5-[2-(1-Cyclopentylpyrrolidin-3-yl)oxyphenyl]-3-(6-methoxy-3-pyridyl)-1,2,4-oxadiazole], the “SI (CC50/EC50)” value in the data set with SARS-CoV-2 [1] stood at 4.9. For the same compound, in the data set on SARS-CoV-2 [2], the concentration giving a half-maximal response (EC50) came out at 4.1 ± 2.2 µM. In the data set “in vitro”, the CC50 came to 20 ± 5.5 µM.
`FC(F)(F)c1cncc(-c2noc(-c3ccccc3OC3CCN(C4CCCC4)C3)n2)c1` (stereo not shown) [Compound 28, 5-[2-(1-Cyclopentylpyrrolidin-3-yl)oxyphenyl]-3-[5-(trifluoromethyl)-3-pyridyl]-1,2,4-oxadiazole]: the “SI (CC50/EC50)” value in the data set with SARS-CoV-2 [1] worked out at 4.8. Besides, the EC50 with SARS-CoV-2 [2] is 2.1 ± 0.1 µM. In the data set “in vitro”, this compound came in with a CC50 of 10 ± 1 µM.
As to `FC(F)(F)c1ccncc1-c1noc(-c2ccccc2OC2CCN(C3CCCC3)C2)n1` (stereo not shown) [Compound 29, 5-[2-(1-Cyclopentylpyrrolidin-3-yl)oxyphenyl]-3-[4-(trifluoromethyl)-3-pyridyl]-1,2,4-oxadiazole], the “SI (CC50/EC50)” value in the data set on SARS-CoV-2 [1] turned out to be 8.4. Moreover, the EC50 in the data set with SARS-CoV-2 [2] turned out to be 3.1 ± 1.3 µM. In the data set “in vitro”, this compound showed a CC50 of 26 ± 7 µM.
For `Cc1ccncc1-c1noc(-c2ccccc2OC2CCN(C3CCCC3)C2)n1` (stereo not shown) [Compound 30, 5-[2-(1-Cyclopentylpyrrolidin-3-yl)oxyphenyl]-3-(4-methyl-3-pyridyl)-1,2,4-oxadiazole], the “SI (CC50/EC50)” value with SARS-CoV-2 [1] is reported as 33.6. The concentration for a half-maximal effect (EC50) in the data set on SARS-CoV-2 [2] was determined as 1.4 ± 1 µM. In addition, the CC50 in the data set “in vitro” was determined as 47 ± 1 µM.
As to `Cc1cnccc1-c1noc(-c2ccccc2OC2CCN(C3CCCC3)C2)n1` (stereo not shown) [Compound 31, 5-[2-(1-Cyclopentylpyrrolidin-3-yl)oxyphenyl]-3-(3-methyl-4-pyridyl)-1,2,4-oxadiazole], the EC50 in the data set on SARS-CoV-2 [2] stood at 1.8 ± 0.3 µM. Further, the CC50 in the data set “in vitro” came to 18 ± 9 µM.
Turning to `c1ccc(-c2noc(-c3ccncc3)n2)c(OC2CCN(C3CCCC3)C2)c1` (stereo not shown) [Compound 35, 3-[2-(1-Cyclopentylpyrrolidin-3-yl)oxyphenyl]-5-(4-pyridyl)-1,2,4-oxadiazole], the “SI (CC50/EC50)” value with SARS-CoV-2 [1] stood at 4.8. The EC50 in the data set on SARS-CoV-2 [2] came to 6.2 ± 2.7 µM. In addition, the CC50 in “in vitro” was determined as 30 ± 12 µM.
For `c1ccc(-c2nnc(-c3ccncc3)o2)c(OC2CCN(C3CCCC3)C2)c1` (stereo not shown) [Compound 38, 2-[2-(1-Cyclopentylpyrrolidin-3-yl)oxyphenyl]-5-(4-pyridyl)-1,3,4-oxadiazole], in the data set on SARS-CoV-2 [1], the “SI (CC50/EC50)” value was 3.1 and the “potency loss / fold less active relative to compound 8 (SARS-CoV-2)” value was 3 fold. Also, in the data set on SARS-CoV-2 [2], the concentration for a half-maximal effect (EC50) is 15 ± 3 µM. The CC50 in “in vitro” came out at 47 ± 15 µM.
With `c1ccc(-c2nc(-c3ccncc3)ns2)c(OC2CCN(C3CCCC3)C2)c1` (stereo not shown) [Compound 46, 5-[2-(1-Cyclopentylpyrrolidin-3-yl)oxyphenyl]-3-(4-pyridyl)-1,2,4-thiadiazole], the “SI (CC50/EC50)” value in the data set on SARS-CoV-2 [1] worked out at 6.5. In data set [3], the CC50 was 15 ± 1 µM. In addition, the EC50 in the data set on SARS-CoV-2 [2] worked out at 2.3 ± 0.4 µM.
For the compound `N#C[C@@]1(c2ccc3c(N)ncnn23)O[C@H](CO)[C@@H](O)[C@H]1O` [GS-441524, reference compound], in the data set with SARS-CoV-2 [2], the 50% effective concentration (EC50) is 0.82 µM.

Broadly, the EC50 is the concentration needed to bring the measured effect to its halfway point.
